What was measured:
OTR = biological target: T1, OTR (Homo sapiens, UniProt P30559); assay: Ca2+ mobilization in cells stably expressing OTR (FLIPR, antagonist mode); type: cell-based; conditions: OTR/HEK293 stably transfected cell line
T1 construct: expressed in transfected cells; host or cells: OTR/HEK293 stably transfected cell line
T1 sequence (P30559 1-389): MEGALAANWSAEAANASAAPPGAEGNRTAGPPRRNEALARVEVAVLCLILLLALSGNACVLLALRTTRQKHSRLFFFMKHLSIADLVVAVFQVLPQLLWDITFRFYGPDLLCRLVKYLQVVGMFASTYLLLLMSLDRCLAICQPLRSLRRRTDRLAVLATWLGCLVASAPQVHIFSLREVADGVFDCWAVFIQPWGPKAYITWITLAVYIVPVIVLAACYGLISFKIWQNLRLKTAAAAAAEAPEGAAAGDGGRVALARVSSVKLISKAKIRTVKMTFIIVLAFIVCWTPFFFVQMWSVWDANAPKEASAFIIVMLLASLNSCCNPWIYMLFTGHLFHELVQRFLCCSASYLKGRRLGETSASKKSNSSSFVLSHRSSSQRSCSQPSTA
Outline: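 OTR/HEK293 stable cells (20,000 per well) were loaded with Fluo-4 Direct plus probenecid. Cells were pre-exposed to 10-point, 3-fold compound dilutions before agonist challenge at EC80, determined beforehand per cell line. FLIPR calcium fluorescence (Max-Min) was fitted in Prism.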

V1aR = biological target: T2, V1aR (Homo sapiens, UniProt P37288); assay: Ca2+ mobilization in cells stably expressing V1aR (FLIPR, antagonist mode); type: cell-based; conditions: V1a-CHO stably transfected cell line
T2 construct: expressed in transfected cells; host or cells: V1a-CHO stably transfected cell line
T2 sequence (P37288 whole entry, species assumed): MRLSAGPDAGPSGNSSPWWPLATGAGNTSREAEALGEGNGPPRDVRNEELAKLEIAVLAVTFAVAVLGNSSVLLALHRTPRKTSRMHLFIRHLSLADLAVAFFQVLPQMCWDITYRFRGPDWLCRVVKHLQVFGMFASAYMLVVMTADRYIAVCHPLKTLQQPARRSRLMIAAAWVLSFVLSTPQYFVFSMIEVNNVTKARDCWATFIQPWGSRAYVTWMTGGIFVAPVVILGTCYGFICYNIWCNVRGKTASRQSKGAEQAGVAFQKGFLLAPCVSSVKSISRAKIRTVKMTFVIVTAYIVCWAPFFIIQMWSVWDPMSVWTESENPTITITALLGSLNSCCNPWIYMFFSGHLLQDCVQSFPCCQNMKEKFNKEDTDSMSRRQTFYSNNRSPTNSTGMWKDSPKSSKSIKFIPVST
Text: Test Example 2. Determination of the Effect of the Compound of the Present Disclosure on Ca^2+ Mobilization in Cells Stably Expressing V1aR
To measure the antagonistic effect of the compound of the present disclosure on V1aR activity expressed in the V1a-CHO stably transfected cell line.
• F-12 (Hyclone, SH30026.01) • FLIPR CALCIUM 6 ASSAY KIT (Molecul Device, R8191) • Fetal Bovine Serum (FBS) (AusGeneX, FBS500-S) • Hygromycin B (Solarbio, H8080-1g) • DMSO (Sigma, D4540) • HBSS (Gibco 14025-092) • Probenecid (MCE, HY—B0545) • 0.36 mL 96 Round V-bottom Deep Well Plates for Laboratory (Biaosen P-0.36-BSA-96) • 384-well conical bottom polypropylene plate (Nunc, 264573) • Corning® 384-well Flat Clear Bottom Black Polystyrene TC-treated Microplates (Corning 3764)
• Biological safety cabinet (ECSO, AC2-6S1-TC) • Carbon dioxide cell incubator (ECSO, CCI-170B-8) • Inverted microscope (Olympus, CKX53) • Microplate low-speed centrifuge (Xiangzhi, TD5B) • FLIPR® Penta (Molecul Device, 5.0)
• 1. Cell plating: V1a-CHO cells were digested and harvested, resuspended and counted, and then inoculated into a 384-well cell plate at a density of: 1.2×10^4 cells/25 μL/well. The cell plate was then incubated in an incubator at 37° C. with 5% CO2 for about 16-20 h. • 2. The next day: after preparing Assay Buffer, 20× Component A was thawed to room temperature, diluted with Assay buffer to 1× loading buffer, and placed at room temperature for later use. • 3. The medium was removed from the cell plate, and 40 μL of 1× loading buffer was quickly added to each well. After centrifugation, the cell plate was incubated at 37° C. in the dark for 120 minutes. • 4. The serially diluted positive compound, serially diluted test compound, and agonist working solution were formulated. After mixing the serially diluted positive compound/serially diluted test compound with the agonist at a 1:1 ratio, 20 μL per well was transferred to a 384-well compound source plate. • 5. The cell plate, agonist source plate, and pipette tips were placed into their respective positions in the FLIPR instrument. Using FLIPR Tetra, 10 μL of the diluted agonist from Step 4 was added to each test well, and the data were collected at a wavelength of 515 nm-575 nm. • 6. The signal values were plotted against the compound concentrations, and the curve fitting and IC50 calculation were performed using the nonlinear regression method of GraphPad Prism software.

SMILES | IC50 (OTR) | IC50 (V1aR)
CO/N=C1/C[C@@H](CO)N(C(=O)c2cnc(-c3cccc(C)c3C)cn2)C1 [Example A0061, (S, Z)-(5-(2,3-Dimethylphenyl)pyrazin-2-yl)(2-(hydroxymethyl)-4-(methoxyimino)pyrrolidin-1-yl)methanone] | 0.0998 µM | 2.39 µM
CO/N=C1/C[C@@H](CO)N(C(=O)c2ccc(-c3cccc(C)c3C)c(C(F)F)c2)C1 [Example A0134, (S,Z)-(2-(Difluoromethyl)-2′, 3′-dimethyl-[1,1′-biphenyl]-4-yl)(2-(hydroxymethyl)-4-(methoxyimino)pyrrolidin-1-yl)methanone] | 0.0131 µM | 5.82 µM
CO/N=C1/C[C@@H](CO)N(C(=O)c2ccc(-c3cccc(C)c3C)c(OCCO)c2)C1 [Example A0148, (S, Z)-(2-(2-Hydroxyethoxy)-2′,3′-dimethyl-[1,1′-biphenyl]-4-yl)(2-(hydroxymethyl)-4-(methoxyimino)pyrrolidin-1-yl)methanone] | 0.0344 µM | 0.732 µM
CO/N=C1/C[C@@H](CO)N(C(=O)c2ccc(-c3cccc(C)c3C)c(C(=O)NC3COC3)c2)C1 [Example A0157, (S, Z)-4-(2-(Hydroxymethyl)-4-(methoxyimino)pyrrolidine-1-carbonyl)-2′, 3′-dimethyl-N-(oxetan-3-yl)-[1,1′-biphenyl]-2-carboxamide] | 0.119 µM | 6.74 µM
CO/N=C1/C[C@@H](CO)N(C(=O)c2ccc(-c3cccc(C#N)c3C)c3c2OCCN3C)C1 [Example A0162] | 0.0315 µM | 0.587 µM
CO/N=C1/C[C@@H](CO)N(C(=O)c2ccc(-c3cccc(C#N)c3C)c3c2cnn3C)C1 [Example A0167, 3-(4-[(2S,4Z)-2-(Hydroxymethyl)-4-(methoxyimino)pyrrolidine-1-carbonyl]-1-methyl-1H-indazol-7-yl)-2-methylbenzonitrile] | 0.0498 µM | 1.48 µM
CO/N=C1/C[C@@H](CO)N(C(=O)c2ccc(-c3cccc(C#N)c3C)c(C#N)c2)C1 [Example A0173, 2-(3-Cyano-2-methylphenyl)-5-[(2S, 4Z)-2-(hydroxymethyl)-4-(methoxyimino)pyrrolidine-1-carbonyl]benzonitrile] | 0.0361 µM | 8.77 µM
COCCOc1cc(C(=O)N2C/C(=N\OC)C[C@H]2CO)ccc1-c1cccc(C#N)c1C [Example A0191, (S, Z)-4′-(2-(Hydroxymethyl)-4-(methoxyimino)pyrrolidine-1-carbonyl)-2′-(2-methoxyethoxy)-2-methyl-[1, 1′-biphenyl]-3-carbonitrile] | 0.0168 µM | 1.02 µM
CO/N=C1/C[C@@H](CO)N(C(=O)c2ccc(-c3cccc(C#N)c3C)c(OC)n2)C1 [Example A0215, 3-(6-[(2S, 4Z)-2-(Hydroxymethyl)-4-(methoxyimino)pyrrolidine-1-carbonyl]-2-methoxypyridin-3-yl)-2-methylbenzonitrile] | 0.0587 µM | 11.2 µM

Second part, the compound after the results:

IC50 (OTR) | IC50 (V1aR) | SMILES
0.013 µM | 0.223 µM | CO/N=C1/C[C@@H](C(C)O)N(C(=O)c2ccc(-c3ccccc3C)cc2)C1 (mixture of isomers) [Example C0067, (S, Z, RS)-(2-(1-Hydroxyethyl)-4-(methoxyimino)pyrrolidin-1-yl)(2′-methyl-[1,1′-biphenyl]-4-yl)methanone]
0.0559 µM | 13.2 µM | CON=C1CC(CO)N(C(=O)c2ccc(-c3cccc(C#N)c3C)c3c2OCO3)C1 (single isomer, unassigned) [Example C0098]
0.0126 µM | 2.35 µM | CO/N=C1/C[C@@H]([C@H](C)O)N(C(=O)c2ccc(-c3cccc(C#N)c3C)cc2)C1 (single isomer, unassigned) [Example C0111]
0.0553 µM | 1.56 µM | CO/N=C1\C[C@@H]([C@@H](C)O)N(C(=O)c2ccc(-c3cccc(C#N)c3C)cc2)C1 (single isomer, unassigned) [Example C0113]
0.815 µM | – | CO/N=C1/C[C@@H](CO)N(C(=O)c2ncc(-c3cccc(C)c3C)s2)C1 [Example C0097, (S, Z)-(5-(2,3-Dimethylphenyl)thiazol-2-yl)(2-(hydroxymethyl)-4-(methoxyimino)pyrrolidin-1-yl)methanone]
1.48 µM | – | CO/N=C1/C[C@@H](CO)N(C(=O)c2ccc(-c3cccc(C)c3C)c(=O)n2C)C1 [Example C0103, (S,Z)-3-(2,3-Dimethylphenyl)-6-(2-(hydroxymethyl)-4-(methoxyimino)pyrrolidine-1-carbonyl)-1-methylpyridin-2(1H)-one]
0.102 µM | – | CO/N=C1/C[C@@H](CO)N(C(=O)c2ccc(-c3cccc(C#N)c3C(F)(F)F)cc2)C1 [Example C0127, (S, Z)-4′-(2-(Hydroxymethyl)-4-(methoxyimino)pyrrolidine-1-carbonyl)-2-(trifluoromethyl)-[1,1′-biphenyl]-3-carbonitrile]
0.00743 µM | – | CO/N=C1/C[C@@H](CO)N(C(=O)c2ccc(-c3cccc(C(F)F)c3C)c3c2OCCO3)C1 [Example C0137, (S,Z)-(8-(3-(Difluoromethyl)-2-methylphenyl)-2,3-dihydrobenzo[b][1,4]dioxin-5-yl)(2-(hydroxymethyl)-4-(methoxyimino)pyrrolidin-1-yl)methanone]
0.0405 µM | – | CO/N=C1/C[C@@H](CO)N(C(=O)c2ccc(-c3c(F)ccc(C#N)c3C)c3c2OCO3)C1 [Example C0139, 4-Fluoro-3-(7-((S,Z)-2-(hydroxymethyl)-4-(methoxyimino)pyrrolidine-1-carbonyl)benzo[d][1,3]dioxol-4-yl)-2-methylbenzonitrile]
0.0599 µM | – | CO/N=C1/C[C@@H](CO)N(C(=O)c2ccc(-c3cc(F)cc(C#N)c3C)c3c2OCO3)C1 [Example C0144, (S,Z)-5-Fluoro-3-(7-(2-(hydroxymethyl)-4-(methoxyimino)pyrrolidine-1-carbonyl)benzo[d][1,3]dioxol-4-yl)-2-methylbenzonitrile]
0.228 µM | – | CO/N=C1/C[C@@H](CO)N(C(=O)c2ccc3c(c2)OCCc2c(C#N)cccc2-3)C1 [Example C0146, (S, Z)-3-(2-(Hydroxymethyl)-4-(methoxyimino)pyrrolidine-1-carbonyl)-6,7-dihydrodibenzo[b,d]oxepine-8-carbonitrile]
0.158 µM | – | CO/N=C1\C[C@@H](CO)N(C(=O)c2ccc(-c3ccc(F)c(C#N)c3C)c3c2OCCO3)C1 [Example C0148, (S,E)-6-Fluoro-3-(8-(2-(hydroxymethyl)-4-(methoxyimino)pyrrolidine-1-carbonyl)-2,3-dihydrobenzo[b][1,4]dioxin-5-yl)-2-methylbenzonitrile]
0.0736 µM | – | CO/N=C1\C[C@@H](CO)N(C(=O)c2ccc(-c3cccc(C#N)c3C)cc2F)C1 [Example C0156, (S,E)-3′-Fluoro-4′-(2-(hydroxymethyl)-4-(methoxyimino)pyrrolidine-1-carbonyl)-2-methyl-[1,1′-biphenyl]-3-carbonitrile]
0.072 µM | – | CO/N=C1\C[C@@H](C(C)(C)O)N(C(=O)c2ccc(-c3cccc(C#N)c3C)cc2)C1 [Example C0163, (S,E)-4′-(2-(2-Hydroxypropan-2-yl)-4-(methoxyimino)pyrrolidine-1-carbonyl)-2-methyl-[1,1′-biphenyl]-3-carbonitrile]
